Data taken from the NIST ThermoML archive (doi:10.1021/je0342419).
± gives the expanded uncertainty stated by the source.

Tests used:
[1] = 300 kPa, Fluid (supercritical or subcritical phases)
[2] = xn = mol fraction of the nth substance listed; details: 300 kPa, Fluid (supercritical or subcritical phases)

**Q.** What does the source list for `O=C=O` [carbon dioxide]?
**A.** viscosity ([1]; 500 K): 0.0236 ± 0.0007 mPa·s; viscosity ([1]; 800 K): 0.0356 ± 0.0011 mPa·s; viscosity ([1]; 1100 K): 0.0452 ± 0.0014 mPa·s

**Q.** Which results are given for `O=C=O` [carbon dioxide] + [HH]?
**A.** viscosity ([2]; 500 K, x2 = 0): 0.0236 ± 0.0007 mPa·s; viscosity ([2]; 800 K, x2 = 0): 0.0356 ± 0.0011 mPa·s; viscosity ([2]; 1100 K, x2 = 0): 0.0452 ± 0.0014 mPa·s

**Q.** Which results are given for `[HH]` [hydrogen]?
**A.** viscosity ([1]; 500 K): 0.0129 ± 0.0004 mPa·s; viscosity ([1]; 800 K): 0.0179 ± 0.0005 mPa·s; viscosity ([1]; 1100 K): 0.0226 ± 0.0007 mPa·s

**Q.** For `[HH]` [hydrogen] + O=C=O, which viscosity ([2]; 500 K, x1 = 0.15) is on record?
**A.** 0.0238 ± 0.0007 mPa·s

**Q.** And the viscosity ([2]; 500 K, x1 = 0.3)?
**A.** 0.0241 ± 0.0007 mPa·s

**Q.** What about the viscosity ([2]; 500 K, x1 = 0.5) of the same molecule?
**A.** 0.0236 ± 0.0007 mPa·s

**Q.** And the viscosity ([2]; 500 K, x1 = 0.7)?
**A.** 0.0215 ± 0.0006 mPa·s

**Q.** What about the viscosity ([2]; 500 K, x1 = 0.85) of the same molecule?
**A.** 0.0192 ± 0.0006 mPa·s

**Q.** And the viscosity ([2]; 500 K, x1 = 1)?
**A.** 0.0129 ± 0.0004 mPa·s

**Q.** What about the viscosity ([2]; 800 K, x1 = 0.15) of the same molecule?
**A.** 0.0351 ± 0.0011 mPa·s

**Q.** What about the viscosity ([2]; 800 K, x1 = 0.3) of the same molecule?
**A.** 0.0346 ± 0.001 mPa·s

**Q.** And the viscosity ([2]; 800 K, x1 = 0.5)?
**A.** 0.0336 ± 0.001 mPa·s

**Q.** And the viscosity ([2]; 800 K, x1 = 0.7)?
**A.** 0.0303 ± 0.0009 mPa·s

**Q.** What about the viscosity ([2]; 800 K, x1 = 0.85) of the same molecule?
**A.** 0.0269 ± 0.0008 mPa·s

**Q.** And the viscosity ([2]; 800 K, x1 = 1)?
**A.** 0.0179 ± 0.0005 mPa·s

**Q.** What about the viscosity ([2]; 1100 K, x1 = 0.15) of the same molecule?
**A.** 0.0438 ± 0.0013 mPa·s

**Q.** And the viscosity ([2]; 1100 K, x1 = 0.3)?
**A.** 0.0431 ± 0.0013 mPa·s

**Q.** What about the viscosity ([2]; 1100 K, x1 = 0.5) of the same molecule?
**A.** 0.0422 ± 0.0013 mPa·s

**Q.** What about the viscosity ([2]; 1100 K, x1 = 0.7) of the same molecule?
**A.** 0.0403 ± 0.0012 mPa·s

**Q.** What about the viscosity ([2]; 1100 K, x1 = 0.85) of the same molecule?
**A.** 0.0346 ± 0.0011 mPa·s

**Q.** What about the viscosity ([2]; 1100 K, x1 = 1) of the same molecule?
**A.** 0.0226 ± 0.0007 mPa·s
